Results reported in patent US20220323406A1, “METHODS AND COMPOSITIONS FOR DIFFERENTIATING STEM CELLS” (Massachusetts Institute of Technology, priority 2019, published 2022).

Columns and labels:
[1] = tested on: ENR+CD organoids (ISC to Paneth cell differentiation); assay: Primary screen: basal (non-stimulated) lysozyme secretion LYZ.NS, 2.5-D 384-well ENR+CD organoid differentiation; type: cell-based, mouse; settings: primary screen; for Z.LYZ.NS: standard z score; for Dose.FC.LYZ.NS: FC vs plate median
Text: (§1) High-throughput screening.

[2] = tested on: ENR+CD organoids (ISC to Paneth cell differentiation); assay: Primary screen: CCh-stimulated lysozyme secretion LYZ.S, 2.5-D 384-well ENR+CD organoid differentiation; type: cell-based, mouse; settings: primary screen, FC vs plate median
Text: as §1

ENR+CD organoids = assay: Primary screen: ATP (CellTiter-Glo 3D, CTG) cell number/viability, 2.5-D 384-well ENR+CD organoids; settings: primary screen; for Z.CTG: standard z score; for Dose.FC.CTG: FC vs plate median;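 for all read-outs here: compounds given at plating and again on day 3 over a 6-day differentiation from ENR+CV stem-cell-enriched precursors, ATP measured on day 6, plate median as control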

Row | SMILES | Z.LYZ.NS ([1]; dose 0.08 uM) | Z.LYZ.NS ([1]; dose 0.40 uM) | Z.LYZ.NS ([1]; dose 2.00 uM) | Z.LYZ.NS ([1]; dose 10.00 uM) | Dose.FC.LYZ.NS ([1]; dose 0.08 uM) [log2 fold change] | Dose.FC.LYZ.NS ([1]; dose 0.40 uM) [log2 fold change] | Dose.FC.LYZ.NS ([1]; dose 2.00 uM) [log2 fold change] | Dose.FC.LYZ.NS ([1]; dose 10.00 uM) [log2 fold change] | Dose.FC.LYZ.S ([2]; dose 0.08 uM) [log2 fold change] | Dose.FC.LYZ.S ([2]; dose 0.40 uM) [log2 fold change] | Dose.FC.LYZ.S ([2]; dose 2.00 uM) [log2 fold change] | Dose.FC.LYZ.S ([2]; dose 10.00 uM) [log2 fold change] | Z.CTG (ENR+CD organoids; dose 0.08 uM) | Z.CTG (ENR+CD organoids; dose 0.40 uM) | Z.CTG (ENR+CD organoids; dose 2.00 uM) | Z.CTG (ENR+CD organoids; dose 10.00 uM) | Dose.FC.CTG (ENR+CD organoids; dose 0.08 uM) [log2 fold change] | Dose.FC.CTG (ENR+CD organoids; dose 0.40 uM) [log2 fold change] | Dose.FC.CTG (ENR+CD organoids; dose 2.00 uM) [log2 fold change] | Dose.FC.CTG (ENR+CD organoids; dose 10.00 uM) [log2 fold change]
1 | C[C@](O)(COc1ccc(C#N)cc1)C(=O)Nc1ccc(C#N)c(C(F)(F)F)c1 [MK-2866 (GTx-024)] | 0.309 | 0.241 | 0.310 | −0.510 | 0.035 | 0.028 | 0.036 | −0.059 | 0.072 | 0.050 | 0.078 | −0.072 | 0.003 | −0.474 | −0.210 | −0.877 | 0.001 | −0.198 | −0.088 | −0.367
2 | O=C(O)Cn1nnc(-c2cc(N3CCC(Oc4cc(F)ccc4Br)CC3)no2)n1 [MK-8245] | 0.200 | 0.273 | −0.315 | −0.670 | 0.023 | 0.031 | −0.036 | −0.077 | 0.069 | 0.185 | −0.062 | −0.123 |  |  |  |  | 0.156 | −0.113 | −0.021 | −0.263
3 | COc1ccc(CNCc2cccc3ccccc23)cc1.Cl [ML133 HCl] | 0.261 | −0.116 | 0.633 | −0.155 | 0.030 | −0.013 | 0.073 | −0.018 | 0.062 | −0.018 | 0.087 | −0.014 | −0.023 | −0.360 | −0.591 | −0.096 | −0.009 | −0.151 | −0.247 | −0.040
4 | CCCC(=O)Nc1cccc(NC(=O)c2ccccc2Br)c1 [ML161] | 0.158 | −0.237 | 0.323 | −0.494 | 0.018 | −0.027 | 0.037 | −0.057 | 0.017 | −0.027 | 0.024 | −0.066 | 0.205 | 0.067 | 0.157 | −0.084 | 0.086 | 0.028 | 0.066 | −0.035
5 | COc1ccc(-c2cnc3c(-c4cccc5ncccc45)cnn3c2)cc1 [ML347] | 1.079 | 1.150 | 0.600 | −1.078 | 0.124 | 0.132 | 0.069 | −0.124 | 0.094 | 0.111 | 0.072 | −0.202 | 0.439 | 0.500 | 0.328 | −0.404 | 0.184 | 0.209 | 0.137 | −0.169
6 | CC(C)C[C@H](NC(=O)CNC(=O)c1cc(Cl)ccc1Cl)B(O)O [MLN2238] | −2.358 | −2.477 | −2.166 | −2.597 | −0.271 | −0.284 | −0.249 | −0.298 | −0.383 | −0.358 | −0.353 | −0.370 |  |  |  |  | −1.655 | −1.104 | −1.233 | −1.761
7 | O=C(O)c1ccc(Nc2ncc3c(n2)-c2ccc(Cl)cc2C(c2c(F)cccc2F)=NC3)cc1 [MLN8054] | 0.574 | 0.066 | −0.868 | −0.979 | 0.066 | 0.008 | −0.100 | −0.112 | 0.042 | 0.167 | −0.087 | −0.197 |  |  |  |  | 0.026 | 0.014 | −0.465 | −0.498
8 | CCC(CC)(NC(=O)C(C)C)C(=O)N[C@@H](CCCN=C(N)N)C(=O)NC1(C(=O)NC(c2ccc(F)cc2)c2ccc(F)cc2)CCCC1 [MM-102] | −0.220 | −0.090 | 0.230 | −1.424 | −0.025 | −0.010 | 0.026 | −0.164 | −0.027 | −0.001 | −0.035 | −0.194 | −0.489 | −0.315 | −0.557 | −0.964 | −0.205 | −0.132 | −0.233 | −0.403
